Measured values: patent US8853424B2 (Japan Science and Technology Agency, priority 2008, dated 2014)
Like-named read-outs stand apart in the source and are kept apart here.

Key:
[1] = test system: Truncated N-terminal huntington 150 Q-EGFP-Neuron 2a cells; assay: Measurement of x-Fold (polyglutamine aggregation inhibitory activity); assay type: cell-based
Procedure: In the present invention, the polyglutamine aggregation inhibitory activity (x-Fold) can be measured, for example, by the method described in the Example.
The number of the aggregated cells, and the total number of cells were counted by Array Scan V T1 (manufactured by Cellomics, Pittuburg, USA), and the ratio of the aggregated cells to the total number of cells was determined (x-Fold). […]

[2] = target: T1, SOCE (ICRAC) reconstituted by STIM1 and Orail (CRACM1) (Homo sapiens, UniProt Q96D31); assay: ICRAC whole cell patch clamp in HEK293 cells forcibly expressing STIM1 and Orail (CRACM1); assay type: cell-based; conditions: inward current at −80 mV
T1 construct: expressed in transfected cells; host or cells: HEK293 cells
Excerpt: FIG. 2 is a drawing showing an Icrac inhibitory effect of 163AE, and the vertical axis and the horizontal axis show the same as in FIG. 1.
The effects of 162AE (bis(3,3′-(phenylaminoethoxyboryl)benzyl)ether described in Example 8) and 163AE (bis(4,4′-(phenylaminoethoxyboryl)benzyl)ether described in Example 131) for ICRAC, whose molecular entity as one of SOCE has been clarified, were investigated using an electrophysiological method. STIM1 and Orail (CRACM1) were forcibly expressed in HEK293 cells, and whole cell records were taken by the Patch clamp technique. BAPTA (20 mM), which is a calcium chelator, and IP3 (20 μM) that depletes intracellular calcium store were added to a recording electrode internal solution (120 mM Cs-glutamate, 10 mM HEPES, 3 mM MgCl2), 10 mM calcium was added to an extracellular solution to facilitate observation of calcium electric current, and a ramp command from −150 mV to +150 mV was input at 0.5 Hz to obtain a current-voltage curve. For quantification of SOCE, the size of the inward current at −80 mV was used as an index. After the start of the whole cell recording, time was taken to sufficiently activate SOCE (ICRAC), and compounds 162AE and 163AE as inhibitors were administered to the cells. […]

[3] = test system: transglutaminase (TGase); assay: Measurement of TG (TGase inhibitory activity, monodansyl cadaverine / N,N-dimethylcasein fluorescence, FDSS 3000); assay type: biochemical
Outline: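 Compound (1 μL of 10 mM stock) added to 0.1 mL reaction: 100 mM HEPES-NaOH pH 7.5, 1 mM CaCl2, 20 μM monodansyl cadaverine, 0.05 mg/mL N,N-dimethylcasein, 5 μg/mL TGase. Rate of fluorescence change at 340 nm measured; DMSO control set to 100; TG50 is the concentration halving activity.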

[4] = test system: SOC (store operated calcium channel); assay: Measurement of SOC IC50 (thapsigargin store depletion, calcium re-addition, CHO cells); assay type: cell-based; conditions: read-out: SOC IC50
Procedure: The SOC (store operated calcium channel)-suppressive action can be measured by the method described in the Example and using, for example, FDSS 3000.
CHO cell culture medium was replaced with a BSS solution which is an extracellular fluidfree of calcium, the compound of the present invention was added 1 min later, and 1 μM thapsigargin was allowed to act thereon 2 min later to deplete intracellular calcium store. […]

[5] = polyglutamine aggregation inhibitory activity, Table 1
[6] = ratio of aggregated cells to total number of cells, compound 20 μM, 20 hr, almost 1 without compound, smaller = stronger inhibition
[7] = TGase activity with compound (10 mM, 1 μL in 0.1 ml enzyme reaction solution), DMSO control taken as 100
[8] = TGase inhibitory activity value, Table 1
[9] = CHO cells, 1 μM thapsigargin, 2 mM calcium chloride
[10] = Cricetulus griseus, CHO, CHO cells, 1 μM thapsigargin, 2 mM calcium chloride
[11] = polyglutamine aggregation, Truncated N-terminal huntington 150 Q-EGFP-Neuron 2a cells
[12] = TGase inhibitory activity measurement, unit not given

T1 sequence (Q96D31 whole entry): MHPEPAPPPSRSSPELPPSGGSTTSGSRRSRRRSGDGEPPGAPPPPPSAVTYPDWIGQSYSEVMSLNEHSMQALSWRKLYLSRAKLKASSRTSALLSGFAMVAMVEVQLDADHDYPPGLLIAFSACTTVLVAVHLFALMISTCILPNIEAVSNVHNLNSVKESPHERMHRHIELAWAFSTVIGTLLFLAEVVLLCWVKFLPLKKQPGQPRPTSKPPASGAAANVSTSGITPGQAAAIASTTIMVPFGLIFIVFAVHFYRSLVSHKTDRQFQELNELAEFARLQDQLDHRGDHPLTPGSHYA

| IC50 [2] [nM] | TGase activity remaining (% of DMSO control = 100) [3, 7] | TGase activity remaining (% of DMSO control = 100) [3, 8] | IC50 [4, 9] [nM] | IC50 ([4]; Cricetulus griseus, CHO, Table 1) [nM] | TGase activity remaining (% of DMSO control = 100) [3, 12] | IC50 ([4]; Cricetulus griseus, CHO) [nM] | Compound | x-Fold [1, 5] | x-Fold [1, 6] | IC50 [4, 10] [nM] | x-Fold [1, 11] | IC50 ([4]; Cricetulus griseus, CHO, CHO cells, thapsigargin store depletion) [nM] |
| --- | --- | --- | --- | --- | --- | --- | --- | --- | --- | --- | --- | --- |
| 170 | – | – | – | 300 | – | – | NCCOB(c1ccccc1)c1ccc(COCc2ccc(B(OCCN)c3ccccc3)cc2)cc1 [Example 131, bis((4,4′-phenylaminoethoxyboryl)benzyl)ether] | 1.1 | 1.1 | 300 | – | – |
| – | 52 | – | 500 | – | – | – | OB(c1ccccc1)c1ccccc1COCc1ccccc1B(O)c1ccccc1 [Example 486, bis(2,2′-(phenylhydroxyboryl)benzyl)ether] | – | 1.04 | – | – | – |
| – | 48 | – | 1500 | – | 48 | – | bis(3,3′-(phenyl-2-benzyl-2-amino-ethoxyboryl)benzyl)ether [Example 481] | – | 0.80 | – | 0.80 | – |
| – | −4 | −4 | 150 | – | – | – | bis(4,4′-(phenylaminoethoxyboryl)phenyl)ether [Example 5] | 0.60 | 0.60 | – | – | – |

More lines, now with the values behind:

| Compound | IC50 [2] [nM] | TGase activity remaining (% of DMSO control = 100) [3, 7] | TGase activity remaining (% of DMSO control = 100) [3, 8] | IC50 [4, 9] [nM] | IC50 ([4]; Cricetulus griseus, CHO, Table 1) [nM] | TGase activity remaining (% of DMSO control = 100) [3, 12] | IC50 ([4]; Cricetulus griseus, CHO) [nM] | x-Fold [1, 5] | x-Fold [1, 6] | IC50 [4, 10] [nM] | x-Fold [1, 11] | IC50 ([4]; Cricetulus griseus, CHO, CHO cells, thapsigargin store depletion) [nM] |
| --- | --- | --- | --- | --- | --- | --- | --- | --- | --- | --- | --- | --- |
| NCCOB(c1ccccc1)c1cccc(COCc2cccc(B(OCCN)c3ccccc3)c2)c1 [Example 8, bis(3,3′-(phenylaminoethoxyboryl)benzyl)ether] | 86 | 24 | 24 | 200 | – | – | – | 1.1 | 1.1 | – | – | – |
| NC(COB(c1ccccc1)c1ccc(COCc2ccc(B(OCC(N)Cc3ccccc3)c3ccccc3)cc2)cc1)Cc1ccccc1 (stereo not shown) [Example 479, bis(4,4′-(phenyl-2-benzyl-2-amino-ethoxyboryl)benzyl)ether] | – | 54 | – | 1500 | – | 54 | – | – | 1.00 | – | 1.00 | – |
| NC(COB(c1ccccc1)c1ccc(Oc2ccc(B(OCC(N)Cc3ccccc3)c3ccccc3)cc2)cc1)Cc1ccccc1 (stereo not shown) [Example 480, bis(4,4′-(phenyl-2-benzyl-2-amino-ethoxyboryl)phenyl)ether] | – | 59 | – | 1500 | – | 59 | – | – | 0.66 | – | 0.66 | – |
| NCCOB(c1ccccc1)c1ccccc1 [Example 487, 2-aminoethyl diphenylborinate] | – | 90 | – | – | – | – | 3000 | – | 0.64 | – | – | – |
| OB(c1ccccc1)c1ccccc1 [Example 488, diphenylborinic acid] | – | 108 | – | – | – | 108 | – | 0.83 | 1.01 | 4000 | 1.01 | 4000 |
| bis(3-chloro-4-methylphenyl 2-pyridylmethoxyborylphenyl)ether [Example 117] | – | 108 | – | 1500 | – | – | – | – | 0.06 | – | – | – |
| diphenyl(tyrosinate-O,N)borane [Example 264] | – | 109 | 109 | 5000 | – | – | – | 1.00 | 1.00 | – | – | – |
